Experimental data published in patent US6379900B1, “Compositions and methods of use of 8-nitroguanine” (Conceptual Mindworks, Inc., priority 2000, dated 2002).

Legend:
[1] = test system: supercoiled pUC19 plasmid DNA; test: Conversion of supercoiled plasmid DNA to open circles (single-stranded DNA breaks) by peroxynitrite; type: biochemical, E coli
Description: E coli strain JM109 containing plasmid DNA (pUC19) was grown in 2 ml of M9 media to which 24 μl of 2.5 mg/ml ampicillin was added. Following incubation for approximately 8 hours, the culture was transferred to 50 ml of M9 media containing ampicillin. The following day, 25 ml of the overnight culture was used to inoculate 500 ml of M9 media containing ampicillin. When the optical density at 600 nm of the bacterial culture reached between 0.6 and 0.8 O.D., 50 mg of chloramphenicol, dissolved in 1 ml of absolute ethanol, was added to the culture and the culture was incubated overnight. The next morning, cells were harvested by centrifugation. Plasmid DNA was isolated using a Promega Wizard MaxiPrep Kit. Cells were resuspended in resuspension solution, and lysis buffer was added. The buffer was neutralized after 20 min, the solution was centrifuged and the supernatant collected. To the supernatant was added 0.5 volumes of isopropanol, which caused the DNA to precipitate. […] After removing the fine particles the DNA was ready for use. Its concentration was measured by absorbance at 260 nm (0.2 OD units=10 μg/ml). Plasmid DNA was analyzed by electrophoresis in TAE buffer using a 1% agarose gel. […] DNA was analyzed as described above. The effect of peroxynitrite concentration on the conversion of supercoils to open circles was determined at pH 5, 6, 7, 8, and 9. […] DNA was analyzed as described above. […]

Calf Thymus DNA = test: Viscosity studies of DNA exposed to peroxynitrite (depurination and strand breakage); type: biochemical
Excerpt: As the degree of DNA damage increases, the likelihood of two single stranded breaks occurring within a few bases on the opposite strands of double-stranded DNA also increases. Double-stranded DNA breaks result in a decrease in the length of the DNA molecule, detectable as a decreased viscosity of linear double-stranded DNA. This method was also used to assay for depurination and DNA strand breakage. Stock solutions of Sigma Calf Thymus DNA were made by dissolving DNA in 0.1 M Na2HPO4, pH 8, 0.1 M sodium cacodylate, pH 5, 0.1 M Tris, pH 8, and 0.1 M borate, pH 8. The final volume for all viscosity experiments was 40 ml and the DNA concentration was 420 μg/ml. […] The data was recorded as the relative viscosity and specific viscosity of the solution.

[2] = cited from earlier work

Compound	reduction in DNA supercoiling ([1]; minimum observed under the conditions of the study, constant peroxynitrite concentration) [%]	conversion of supercoiled plasmid DNA to open circles ([1]; pH 4 to 10, 30 minutes at room temperature)	activation energy of the depurination reaction (formation of single-stranded DNA nicks) (Calf Thymus DNA; Arrhenius analysis) [Joules/mole]	viscosity of DNA solution with time of exposure (Calf Thymus DNA; all pH values, 37° C., within the first two hours of exposure)	pKa ([2]; acid form of peroxynitrite)	half life ([2]; pH 7.4) [s]
O=NOO [peroxynitrite]	≥ 45	effective at converting supercoiled plasmid DNA to open circles at all pHs	917	Viscosity decreased		
O=NOO [peroxynitrous acid]					6.8	1.9
